Source: patent US20260017958A1, “METHOD FOR DETERMINING REGION OF CELL THAT HAS UNDERGONE PROGRAMMED CELL DEATH, DEVICE COMPRISING DETERMINATION UNIT, AND INFORMATION PROCESSING PROGRAM INCLUDING DETERMINATION STEP” (priority 2022, published 2026)

How the values were obtained:
HepG2 cell clusters = details: FIG. 47 and 48
Description: A549 cells, a human lung cancer-derived cell line, were seeded on an EZSPHERE 6-well plate (manufactured by AGC Techno Glass Co., Ltd.) at a density of 1.50×10^5 cells per well, and the cells were cultured in MEM medium containing 10% fetal bovine serum and MEM Non-Essential Amino Acids Solution (100x) (manufactured by Gibco, Inc.) at a final concentration of 1× under the conditions of 5% CO2, 37° C., and 100% humidity for 3 days, to form cell clusters. A DMSO solution of staurosporine (manufactured by FUJIFILM Wako Pure Chemical Corporation) was added thereto so as to obtain a final concentration of 0, 10, 20, 50, 100, 200, 300, 500, 700, 1000, 2000, or 5000 nM, and the cells were further cultured for 1 day. […]
Subsequently, the threshold value of the amount of spatial variation of the refractive index used in the threshold method was set to 2×10^−4. Subsequently, the refractive index distribution data was subjected to Gaussian noise removal processing using a Gaussian filter, fourth-order differentiation processing, and image convolution processing, and the amount of spatial variation of the refractive index for each voxel included in the refractive index distribution data was calculated. […]

Description for A549 cell clusters: A549 cells, a human lung cancer-derived cell line, were seeded on an EZSPHERE 6-well plate (manufactured by AGC Techno Glass Co., Ltd.) at a density of 1.50×10^5 cells per well, and the cells were cultured in MEM medium containing 10% fetal bovine serum and MEM Non-Essential Amino Acids Solution (100x) (manufactured by Gibco, Inc.) at a final concentration of 1× under the conditions of 5% CO2, 37° C., and 100% humidity for 3 days, to form cell clusters. A DMSO solution of staurosporine (manufactured by FUJIFILM Wako Pure Chemical Corporation) was added thereto so as to obtain a final concentration of 0, 10, 20, 50, 100, 200, 300, 500, 700, 1000, 2000, or 5000 nM, and the cells were further cultured for 1 day. Under the conditions in which the final concentration of STS was 0 nM, a solution of DMSO (manufactured by Sigma-Aldrich Corporation), which was used as a solvent for STS, at a final concentration of 0.5% was added.
For the obtained cell clusters, the refractive index distribution data was acquired using an observation apparatus 1A and the ODT shown in the refractive index distribution measurement method C. An objective lens at a magnification of 60 times was used.
Subsequently, the threshold value of the amount of spatial variation of the refractive index used in the threshold method was set to 2×10^−4. Subsequently, the refractive index distribution data was subjected to Gaussian noise removal processing using a Gaussian filter, fourth-order differentiation processing, and image convolution processing, and the amount of spatial variation of the refractive index for each voxel included in the refractive index distribution data was calculated. Lastly, the obtained amount of spatial variation of the refractive index was compared with the threshold value 2×10^−4, a region having an amount of spatial variation of the refractive index greater than the threshold value was determined to be a region of cells that had undergone programmed cell death (region of dead cells), and a region having an amount of spatial variation of the refractive index smaller than the threshold value was determined to be a non-divided region (region of live cells).

CN[C@@H]1C[C@H]2O[C@@](C)([C@@H]1OC)n1c3ccccc3c3c4c(c5c6ccccc6n2c5c31)C(=O)NC4 [staurosporine]
equivalent diameter of the cell cluster (A549 cell clusters; 0-5000 nM, FIG. 41): not dependent on the concentration of staurosporine
volume of the cell cluster (A549 cell clusters; 0-5000 nM, FIG. 42): not dependent on the concentration of staurosporine
proportion of regions determined to be non-divided regions (live cells) (A549 cell clusters; 0-5000 nM, FIG. 46): decreased in a staurosporine concentration-dependent manner
nuclear fragmentation (morphological feature of apoptosis) in refractive index tomography data (A549 cell clusters; 1000 nM, FIG. 43): cells with nuclear fragmentation, which is a morphological feature of apoptosis, were observed on the surface and the inside of the cell cluster
external shape of the cell cluster (HepG2 cell clusters): conspicuous changes in the external shape did not occur
